Laboratory results: PMC5748833, “Synthesis and Biological Evaluation of Novel Hybrid Molecules Containing Purine, Coumarin and Isoxazoline or Isoxazole Moieties” (The Open Medicinal Chemistry Journal, 2017)

Assays:
rat monoamine oxidase B = target: T1, rat monoamine oxidase B (Rattus norvegicus, UniProt P19643); assay: Inhibition of MAO-B (spectrofluorimetric method); format: biochemical; conditions: 10 μM compound
T1 construct: from tissue
T1 sequence (P19643 1-520): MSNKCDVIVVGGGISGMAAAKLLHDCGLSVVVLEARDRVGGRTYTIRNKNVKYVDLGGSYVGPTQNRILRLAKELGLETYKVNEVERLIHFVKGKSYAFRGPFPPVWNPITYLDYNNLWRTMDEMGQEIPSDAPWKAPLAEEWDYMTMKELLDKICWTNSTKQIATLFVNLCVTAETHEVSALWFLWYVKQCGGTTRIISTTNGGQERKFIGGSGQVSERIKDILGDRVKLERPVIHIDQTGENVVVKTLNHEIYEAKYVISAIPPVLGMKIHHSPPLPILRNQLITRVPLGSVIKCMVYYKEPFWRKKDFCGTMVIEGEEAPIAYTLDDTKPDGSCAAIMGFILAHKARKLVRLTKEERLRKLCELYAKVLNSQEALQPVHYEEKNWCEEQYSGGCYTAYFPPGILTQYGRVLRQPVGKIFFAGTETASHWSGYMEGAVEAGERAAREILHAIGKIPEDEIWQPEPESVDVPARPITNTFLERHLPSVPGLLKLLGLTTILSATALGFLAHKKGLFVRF
Source text: (§1) 2.2.2.6 Inhibition Study on MAOs in vitro
(§2) Inhibition of rat monoamine oxidase A and B was studied by means of a spectrofluorimetric method as previously detailed.

[1] = Inhibition of linoleic acid lipid peroxidation (AAPH); conditions: 100 μM compound, 37°C
Experimental: 2.2.2.3 Inhibition of linoleic acid lipid peroxidation
Production of conjugated diene hydroperoxide by oxidation of linoleic acid sodium salt in an aqueous solution was monitored at 234 nm. 2,2’-Azobis(2-amidinopropane) dihydrochloride (AAPH) was used as a free radical initiator. 10 μl of the 16 mM linoleic acid sodium salt solution was added to the UV cuvette containing 0.93 ml of 0.05 M phosphate buffer, pH 7.4 prethermostated at 37°C. The oxidation reaction was initiated at 37°C under air by the addition of 50 μl of 40 mM AAPH solution. Oxidation was carried out in the presence of 10 μl of the examined compounds (stock solution in DMSO). In the assay without antioxidant, lipid oxidation was measured in the presence of the same level of DMSO. The rate of oxidation at 37°C was monitored by recording the increase in absorption at 234 nm caused by conjugated diene hydroperoxides (Table 5). Trolox was used as a standard.
Anti-lipid peroxidation activity. The water-soluble azo compound AAPH has been extensively used as a clean and controllable source of thermally produced alkyl peroxyl free radicals, through spontaneous thermal decomposition. […] In the AAPH assay, the highly reactive alkylperoxyl radicals are intercepted mainly by a hydrogen atom transfer (HAT) from the antioxidant.

[2] = target: T2, electric eel acetylcholinesterase (eeAChE) (Electrophorus electricus, UniProt O42275); assay: biochemical; format: biochemical; conditions: read-out: eeAChE IC50 μΜ
T2 construct: purchased Sigma
T2 sequence (O42275 24-633): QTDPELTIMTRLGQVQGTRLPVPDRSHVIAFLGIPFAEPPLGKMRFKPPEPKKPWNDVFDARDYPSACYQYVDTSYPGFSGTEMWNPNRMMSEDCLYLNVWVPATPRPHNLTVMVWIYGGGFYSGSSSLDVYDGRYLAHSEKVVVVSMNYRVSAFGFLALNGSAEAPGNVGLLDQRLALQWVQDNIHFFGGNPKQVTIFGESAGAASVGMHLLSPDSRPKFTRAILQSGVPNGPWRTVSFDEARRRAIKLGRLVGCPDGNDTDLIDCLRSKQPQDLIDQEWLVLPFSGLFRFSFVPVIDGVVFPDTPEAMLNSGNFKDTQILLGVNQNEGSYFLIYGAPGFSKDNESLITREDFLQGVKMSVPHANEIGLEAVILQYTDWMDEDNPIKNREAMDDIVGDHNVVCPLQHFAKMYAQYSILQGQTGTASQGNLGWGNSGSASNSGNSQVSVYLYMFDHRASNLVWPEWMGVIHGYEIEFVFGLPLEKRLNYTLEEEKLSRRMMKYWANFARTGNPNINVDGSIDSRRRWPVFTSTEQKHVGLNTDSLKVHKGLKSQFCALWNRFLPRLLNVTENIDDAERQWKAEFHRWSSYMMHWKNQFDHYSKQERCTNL
Source text: (§3) 2.2.2.5 Inhibition Study on ChEs in vitro
(§4) In vitro inhibition of electric eel acetylcholinesterase (eeAChE; 463 U/mg, Sigma) and equine serum butyrylcholinesterase (esBChE; 13 U/mg, Sigma) was investigated with a 96-well plate procedure based on the classical Ellman’s spectrophotometric test, as already described.

[3] = target: T3, equine serum butyrylcholinesterase (esBChE) (Equus caballus, UniProt P81908); assay: Inhibition of esBChE (Ellman's test); format: biochemical; conditions: read-out: esBChE % inhibn. @ 10 μΜ
T3 construct: purchased Sigma; host or cells: equine serum
T3 sequence (P81908 whole entry): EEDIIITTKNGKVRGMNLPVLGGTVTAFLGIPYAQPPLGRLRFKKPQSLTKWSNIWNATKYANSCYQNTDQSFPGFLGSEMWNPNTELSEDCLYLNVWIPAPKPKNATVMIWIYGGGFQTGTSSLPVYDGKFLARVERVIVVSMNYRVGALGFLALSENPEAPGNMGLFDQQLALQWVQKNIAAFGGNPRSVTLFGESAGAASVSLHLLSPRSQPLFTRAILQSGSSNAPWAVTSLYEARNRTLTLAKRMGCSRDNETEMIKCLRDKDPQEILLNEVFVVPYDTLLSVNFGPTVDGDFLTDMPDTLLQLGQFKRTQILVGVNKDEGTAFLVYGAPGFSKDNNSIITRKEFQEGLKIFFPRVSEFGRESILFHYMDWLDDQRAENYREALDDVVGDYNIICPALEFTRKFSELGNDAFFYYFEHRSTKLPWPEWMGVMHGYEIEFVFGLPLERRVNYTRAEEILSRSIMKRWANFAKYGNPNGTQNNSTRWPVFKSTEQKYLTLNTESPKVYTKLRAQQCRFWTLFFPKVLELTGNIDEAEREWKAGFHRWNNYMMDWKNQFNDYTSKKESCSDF
Source text: as §3, §4

rat monoamine oxidase A = target: T4, rat monoamine oxidase A (Rattus norvegicus, UniProt P21396); assay: Inhibition of MAO-A (spectrofluorimetric method); format: biochemical; conditions: 10 μM compound
T4 construct: from tissue
T4 sequence (P21396 1-526): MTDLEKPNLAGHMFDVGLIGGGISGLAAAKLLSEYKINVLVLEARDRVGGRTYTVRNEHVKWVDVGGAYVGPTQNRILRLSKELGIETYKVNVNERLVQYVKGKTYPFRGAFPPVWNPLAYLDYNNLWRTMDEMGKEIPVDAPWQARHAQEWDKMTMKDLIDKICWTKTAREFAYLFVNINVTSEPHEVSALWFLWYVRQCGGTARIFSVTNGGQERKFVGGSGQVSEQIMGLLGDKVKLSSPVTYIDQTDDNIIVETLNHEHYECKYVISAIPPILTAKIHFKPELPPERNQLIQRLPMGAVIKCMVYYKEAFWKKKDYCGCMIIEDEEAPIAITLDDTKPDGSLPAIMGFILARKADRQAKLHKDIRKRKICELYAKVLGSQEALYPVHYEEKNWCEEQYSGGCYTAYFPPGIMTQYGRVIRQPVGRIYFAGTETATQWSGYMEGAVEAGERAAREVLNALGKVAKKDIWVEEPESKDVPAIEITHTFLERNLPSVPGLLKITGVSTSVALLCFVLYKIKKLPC
Source text: as §1, §2

soybean lipoxygenase = target: T5, soybean lipoxygenase (Glycine max, UniProt P08170); assay: Soybean lipoxygenase inhibition in vitro; format: biochemical; conditions: for IC50: read-out: LOX IC50 μΜ
T5 construct: purchased Sigma Chemical, Co. (St. Louis, MO, USA)
T5 sequence (P08170 1-839): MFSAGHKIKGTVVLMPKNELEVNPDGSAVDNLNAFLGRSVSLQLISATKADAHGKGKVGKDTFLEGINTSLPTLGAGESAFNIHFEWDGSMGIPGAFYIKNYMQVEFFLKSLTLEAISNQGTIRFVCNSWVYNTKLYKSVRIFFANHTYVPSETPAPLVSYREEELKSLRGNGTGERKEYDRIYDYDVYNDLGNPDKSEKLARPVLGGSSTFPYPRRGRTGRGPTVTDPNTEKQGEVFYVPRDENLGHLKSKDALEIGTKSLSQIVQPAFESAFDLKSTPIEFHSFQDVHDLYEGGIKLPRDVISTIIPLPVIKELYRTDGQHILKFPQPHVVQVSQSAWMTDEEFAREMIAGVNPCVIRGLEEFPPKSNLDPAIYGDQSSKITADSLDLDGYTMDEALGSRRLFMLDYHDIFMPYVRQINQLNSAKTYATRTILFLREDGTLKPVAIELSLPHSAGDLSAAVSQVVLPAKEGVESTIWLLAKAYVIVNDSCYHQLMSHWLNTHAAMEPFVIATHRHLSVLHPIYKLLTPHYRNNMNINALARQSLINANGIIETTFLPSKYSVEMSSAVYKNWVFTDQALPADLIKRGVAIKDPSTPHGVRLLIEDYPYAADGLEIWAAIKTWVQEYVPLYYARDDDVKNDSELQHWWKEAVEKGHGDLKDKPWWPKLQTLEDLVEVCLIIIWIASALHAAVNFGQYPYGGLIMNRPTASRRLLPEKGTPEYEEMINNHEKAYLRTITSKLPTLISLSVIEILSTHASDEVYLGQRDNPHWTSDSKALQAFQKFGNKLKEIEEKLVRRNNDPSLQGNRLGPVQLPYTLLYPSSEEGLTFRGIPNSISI
Experimental: 2.2.2.4 Soybean lipoxygenase inhibition study in vitro [14]
In vitro study was evaluated as reported previously. The tested compounds dissolved in ethanol were incubated at room temperature with sodium linoleate (0.1 mM) and 0.2 ml of enzyme solution (1/9 x10^-4 w/v in saline). […] Several concentrations were used for the determination of IC50 values (Table 5).
LO is the key enzyme in leukotriene biosynthesis. Leukotrienes derived from the biotransformation of arachidonic acid catalyzed by 5-lipoxygenase (5-LO), are important inflammatory mediators implicated in several diseases. LOs play a role in membrane lipid peroxidation by forming hydroperoxides in the lipid bilayer. […] Most of the LO inhibitors are antioxidants or free radical scavengers, since lipoxygenation occurs via a carbon-centered radical. The evaluation of the novel coumarin hybrids against soybean lipoxygenase LO was accomplished by the UV-based enzyme assay.

[4] = Reducing activity of the stable radical DPPH; conditions: 100 μM compound, after 20 min
Experimental: 2.2.2.1 Determination of the reducing activity of the stable radical 1, 1-diphenyl-picrylhydrazyl (DPPH)
To a solution of DPPH (100μM) in absolute ethanol an equal volume of the compounds dissolved in ethanol was added. As control solution ethanol was used. The concentration of the solutions of the compounds was 100μM. After 20 and 60 min at room temperature the absorbance was recorded at 517 nm (Table 5). NDGA was used as a standard.
The compounds were studied for their antioxidant activity by the use of the stable 2,2-diphenyl-1-picrylhydrazyl radical (DPPH) at concentration 0.1mM after 20 min. […] This purple colour generally disappears in the presence of an antioxidant. The reduction of absorbance is a measure of the free DPPH due to the action of the antioxidant. The antioxidant activity was expressed as the RA% (Reducing Activity). […] Within the group of derivatives 4 the presence of the morpholinyl or piperidinyl rings at position A as well as the carbonyl group at position B, hinder the interaction of the compounds to the free stable radical DPPH.

[5] = Competition of the tested compounds with DMSO for hydroxyl radicals; conditions: 100 μM compound, Fe3+/ascorbic acid, 30 min, 37°C
Experimental: 2.2.2.2 Competition of the tested compounds with DMSO for hydroxyl radicals
The hydroxyl radicals generated by the Fe ^3+ /ascorbic acid system, were detected according to Nash, by the determination of formaldehyde produced from the oxidation of DMSO. The reaction mixture contained EDTA (0.1 mM), Fe ^3+ (167 μM), DMSO (33 mM) in phosphate buffer (50 mM, pH 7.4), the tested compounds (concentration 0.1mM) and ascorbic acid (10 mM). After 30 min of incubation (37°C) the reaction was stopped with CCl3COOH (17% w/v) (Table 5). Trolox was used as a standard.
Superoxide (O2^-.) anion and hydroxyl radical (^.OH) are free radical species of potential importance. In the acidic conditions of ischemic brain, O2^-. is probably protonated to give HO2^-. species. Iron released from damaged brain cells is more likely to be readily available to catalyze the generation of OH radicals. Among the ROS, the hydroxyl (^•OH) free radical is possibly the most toxic, as it reacts with a number of biological important molecules. Polyunsaturated fatty acids are found in high concentrations in the CNS, and are particularly vulnerable by free radicals. Thus, we tried to test the ability of our compounds to scavenge hydroxyl radicals. […] All the derivatives of series 13 (except of 13i) present high antioxidant activity (80-100%) which is not able to be correlated with any specific structural characteristic since all contain a coumarin, a purine and an isoxazolyl moiery. […] It seems that the overall molar configuration influences the response. However, antioxidants with hydrophilic or lipophilic character are both needed to act as radical scavengers in the aqueous phase or as chain-breaking antioxidants in biological membranes.

SMILES | MAO-B (%) @ 10μΜ (rat monoamine oxidase B) | LP % @ 100μΜ (inhibition of lipid peroxidation) [1] | IC50 [2] | inhibition at 10 µM [3] | MAO-A (%) @ 10μΜ (rat monoamine oxidase A) | IC50 (soybean lipoxygenase) | inhibition at 100 µM (soybean lipoxygenase; read-out: %LOX @ 100μΜ) | RA% @ 100μΜ (reducing activity, DPPH) [4] | ∙ΟΗ % @ 100μΜ (hydroxyl radical scavenging, percent inhibition of formaldehyde production) ([5]; 100 µM) | melting point | %LOX @ 100μΜ (soybean lipoxygenase; 100 μM compound) | ∙ΟΗ % @ 100μΜ (hydroxyl radical scavenging, percent inhibition of formaldehyde production) [5]
Cc1cc(=O)oc2ccc(OCC3CC(Cn4cnc5c(N6CCOCC6)ncnc54)=NO3)cc12 (stereo not drawn) [4b] | 24% | no | 2.3 µM | 17% | no | 60 µM | – | – | – | – | – | –
Cc1cc(=O)oc2cc(OCCC3CC(Cn4cnc5c(N6CCOCC6)ncnc54)=NO3)ccc12 (stereo not drawn) [4i] | no | 54% | 7.7 µM | 15% | 25% | – | 2% | – | – | – | – | –
O=C(Oc1ccc2oc(=O)ccc2c1)C1CC(Cn2cnc3c(N4CCCCC4)ncnc32)=NO1 (stereo not drawn) [4n] | – | no | – | – | – | 35 µM | – | 17% | did not present any activity and no | 175 to 177 °C | – | –
O=C(Oc1ccc2oc(=O)ccc2c1)C1CC(Cn2cnc3c(N4CCOCC4)ncnc32)=NO1 (stereo not drawn) [4o] | – | 40% | – | – | – | 60 µM | – | 3% | did not present any activity and no | 184 to 185 °C | – | –
Cc1cc(=O)oc2cc(OCC3=NOC(Cn4cnc5c(N6CCCCC6)ncnc54)C3)ccc12 (stereo not drawn) [11d] | – | 43% | – | – | – | 48 µM | – | 13% | did not present any activity and no | 144 to 145 °C | – | –
Cc1cc(=O)oc2cc(OCC3=NOC(Cn4cnc5c(Cl)ncnc54)C3)ccc12 (stereo not drawn) [11e] | 9% | 63% | 7.8 µM | 8% | no | – | – | – | – | – | no | –
O=c1ccc2ccc(OCc3cc(Cn4cnc5c(N6CCOCC6)ncnc54)on3)cc2o1 [15b] | – | 52% | – | – | – | 100 µM | – | no | – | 185 to 187 °C | – | 48%
O=c1ccc2ccc(OCC3=NOC(n4cnc5c(N6CCCCC6)ncnc54)C3)cc2o1 (stereo not drawn) [18a, 7-{[5-(6-piperidin-1-yl-9H-purin-9-yl)-4,5-dihydroisoxazol-3-yl]methoxy}-2H-chromen-2-one] | – | No | – | – | – | 90 µM | – | 4% | did not present any activity and no | 197 to 199 °C | – | –
O=c1ccc2ccc(OCC3=NOC(n4cnc5c(N6CCOCC6)ncnc54)C3)cc2o1 (stereo not drawn) [18b] | – | 38% | – | – | – | 100 µM | – | 1% | did not present any activity and no | 205 to 206 °C | – | –
